pEC50, pKi: −log10 of the molar value. Values joined by “and” are separate entries in the source; they are usually repeats but may differ in a detail not shown here. Equal entries are not always repeated. Where two headings read alike, the source gives them in different places.
Key:
delta opioid receptor [1] = biological target: T1, delta opioid receptor (Mus musculus, UniProt P32300); assay: [35S]GTPγS binding assay in NG108-15 cell membranes (delta opioid functional assay), 200 nM screen; format: biochemical; conditions: for GTPγS δ-RelEfficacy @200 nM: 200 nM test compound, relative to calculated max of SNC80 dose response curve; for GTPγS δ-RelEfficacy @200 nM / pEC50 / GTPγS δ-opioid receptor Rel Efficacy / EC50: NG108-15 cell membranes; for GTPγS δ-RelEfficacy @200 nM / pEC50 / EC50: averages if tested more than once; for pEC50: read-out: GTPγS δ-opioid receptor EC50; for GTPγS δ-opioid receptor Rel Efficacy: relative efficacy from dose response; for EC50: GTPγS δ-opioid receptor EC50 (μM); for inhibition at 10 µM: read-out: GTPγS δ-opioid receptor % Inh @10 μM
T1 construct: NG108-15 cell membranes were purchased from Applied Cell Sciences (Rockville, Md.); host or cells: NG108-15 cell membranes
T1 sequence (P32300 whole entry): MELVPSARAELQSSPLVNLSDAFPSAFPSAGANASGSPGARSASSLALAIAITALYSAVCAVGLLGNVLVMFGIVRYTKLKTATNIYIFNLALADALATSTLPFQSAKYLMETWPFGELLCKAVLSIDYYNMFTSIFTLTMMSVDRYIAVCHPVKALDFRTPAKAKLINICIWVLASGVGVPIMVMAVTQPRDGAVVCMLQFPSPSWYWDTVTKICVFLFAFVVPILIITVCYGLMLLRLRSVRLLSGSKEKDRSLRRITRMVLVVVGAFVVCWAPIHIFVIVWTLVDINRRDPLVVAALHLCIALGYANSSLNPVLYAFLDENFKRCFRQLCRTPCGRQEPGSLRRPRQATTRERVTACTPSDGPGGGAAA

delta opioid receptor [2] = biological target: T1, delta opioid receptor; assay: NG108-15, 24-well delta opioid receptor binding assay
delta opioid receptor [3] = biological target: T2, delta opioid receptor (Rattus norvegicus, UniProt P33533); assay: Rat brain delta opioid receptor binding assay; conditions: rat forebrain
T2 construct: the forebrains were homogenized in Tris buffer in a Teflon®-glass homogenizer; from tissue; host or cells: forebrain of male Wistar rats, particulate (membrane) preparation
T2 sequence (P33533 whole entry): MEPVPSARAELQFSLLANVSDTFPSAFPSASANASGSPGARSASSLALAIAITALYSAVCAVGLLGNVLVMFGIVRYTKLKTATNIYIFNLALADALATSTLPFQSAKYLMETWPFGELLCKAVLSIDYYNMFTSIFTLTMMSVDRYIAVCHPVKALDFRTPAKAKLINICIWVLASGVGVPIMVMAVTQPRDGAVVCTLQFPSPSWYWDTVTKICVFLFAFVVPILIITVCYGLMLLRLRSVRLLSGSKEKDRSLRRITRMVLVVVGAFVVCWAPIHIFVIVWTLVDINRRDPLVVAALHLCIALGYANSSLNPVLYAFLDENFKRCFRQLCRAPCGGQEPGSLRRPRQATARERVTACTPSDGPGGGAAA

mu opioid receptor = biological target: T3, mu opioid receptor (Rattus norvegicus, UniProt P33535); assay: Rat brain mu opioid receptor binding assay; conditions: rat forebrain, [3H]DAMGO ligand
T3 construct: the forebrains were homogenized in Tris buffer in a Teflon®-glass homogenizer; from tissue; host or cells: forebrain of male Wistar rats, particulate (membrane) preparation
T3 sequence (P33535 whole entry): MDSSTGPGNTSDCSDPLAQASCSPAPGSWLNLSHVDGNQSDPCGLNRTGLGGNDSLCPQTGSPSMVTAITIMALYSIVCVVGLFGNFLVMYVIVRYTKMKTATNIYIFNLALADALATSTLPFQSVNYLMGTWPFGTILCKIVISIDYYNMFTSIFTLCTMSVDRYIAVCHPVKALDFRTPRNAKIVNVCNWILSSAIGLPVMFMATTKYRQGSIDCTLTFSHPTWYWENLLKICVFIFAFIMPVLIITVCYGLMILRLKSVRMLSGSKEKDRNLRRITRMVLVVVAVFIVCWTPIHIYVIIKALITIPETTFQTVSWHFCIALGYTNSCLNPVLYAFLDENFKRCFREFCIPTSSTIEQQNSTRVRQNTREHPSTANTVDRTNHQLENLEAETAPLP

[4] = [3H]Naltrindole ligand, NG108-15 cell membranes, read-out: δ-binding NG108 cell membrane Ki
[5] = δ-binding (Naltrindole ligand) Ki, [3H]naltrindole ligand

SMILES | GTPγS δ-RelEfficacy @200 nM (delta opioid receptor [1]) | pKi (delta opioid receptor [2]; [4]) | pEC50 (delta opioid receptor [1]) | GTPγS δ-opioid receptor Rel Efficacy (delta opioid receptor [1]) | also measured
CCN(CC)C(=O)c1cccc(Oc2nc(-c3cccnc3)ncc2NC[C@@H]2CCCN2)c1 [Cpd 157] | 0.213 | 7.40 |  |  | 
CC(C)Oc1ccc(Oc2nc(-c3cncc(C#N)c3)ncc2NC[C@@H]2CCCN2)cc1 [Cpd 139] |  | 8.70 | 5.64 | 1.118 | 
CC(C)Oc1ccc(Oc2nc(-c3cncnc3)ncc2NC[C@@H]2CCCN2)cc1 [Cpd 140] | 0.137 | 8.10 |  |  | 
COCc1ccc(Oc2nc(-c3cccnc3)ncc2NC[C@@H]2CCCN2)cc1 [Cpd 155] | 0.170 |  |  |  | pKi (delta opioid receptor [2]): 8.30
N#Cc1cncc(-c2ncc(NC[C@@H]3CCCN3)c(Oc3ccc(Cl)cc3)n2)c1 [Cpd 129] | 0.633 | 9.52 | 7.26 | 0.976 | 
CN1CCN(C(=O)c2ccc(Oc3nc(-c4cccnc4)ncc3NC[C@@H]3CCCN3)cc2)CC1 [Cpd 162] |  | 6.07 |  |  | 
Cc1ccc(Oc2nc(-c3cccnc3)ncc2NC[C@@H]2CCCN2)cc1 [Cpd 149] | 0.403 | 9.00 | 6.63 | 1.026 | 
COc1ccc(Oc2nc(-c3cncc(F)c3)ncc2NC[C@H]2COCCN2)cc1 [Cpd 281] | 0.221 | 9.00 |  |  | 
N#Cc1cncc(-c2ncc(NC[C@@H]3CCCN3)c(Oc3ccc(CO)cc3)n2)c1 [Cpd 143] |  | 9.00 | 6.16 | 1.066 | 
CSc1ccc(Oc2nc(-c3cccnc3)ncc2NC[C@@H]2CCCN2)cc1 [Cpd 152] | 0.607 | 9.40 | 7.15 | 1.083 | 
COc1ccc(Oc2nc(-c3cc(F)cc(C#N)c3)ncc2NC[C@@H]2CCCN2)cc1 [Cpd 142] | 0.931 | 9.70 | 7.54 | 1.006 | 
O=C(c1ccc(Oc2nc(-c3cccnc3)ncc2NC[C@@H]2CCCN2)cc1)N1CCCCC1 [Cpd 160, Piperidin-1-yl-(4-{2-pyridin-3-yl-5-[(pyrrolidin-2-(S)-ylmethyl)-amino]-pyrimidin-4-yloxy}-phenyl)-methanone] |  | 6.47 |  |  | 
COc1ccc(Oc2nc(-c3cncnc3)ncc2NC[C@H]2C[C@H](N)C2)cc1 [Cpd 302] | 0.393 | 9.00 |  |  | 
O=C(O)c1ccc(Oc2nc(-c3cncc(F)c3)ncc2NC[C@@H]2CCCN2)cc1 [Cpd 165] |  | 5.42 |  |  | 
COCc1ccc(Oc2nc(-c3cncnc3)ncc2NC[C@@H]2CCCN2)cc1 [Cpd 154] | 0.164 |  |  |  | pKi (delta opioid receptor [2]): 8.05
CSc1ccc(Oc2nc(-c3cncc(C#N)c3)ncc2NC[C@@H]2CCCN2)cc1 [Cpd 150] | 0.801 |  |  | 1.093 | EC50 (delta opioid receptor [1]): 0.033 µM; pKi (delta opioid receptor [2]): 9.52
COc1ccc(Oc2nc(-c3cncnc3)ncc2NC2CC(N)C2)cc1 (stereo not drawn) [Cpd 304] | 0.228 |  |  |  | pKi (delta opioid receptor [2]): 8.70
CN1CCN(C(=O)c2cccc(Oc3nc(-c4cccnc4)ncc3NC[C@@H]3CCCN3)c2)CC1 [Cpd 169] |  | 7.48 |  |  | 
O=C(Nc1ccc(Oc2nc(-c3cccnc3)ncc2NC[C@@H]2CCCN2)cc1)C1CC1 [Cpd 138, Cyclopropanecarboxylic acid (4-{2-pyridin-3-yl-5-[(pyrrolidin-2-(S)-ylmethyl)-amino]-pyrimidin-4-yloxy}-phenyl)-amide] |  |  | 5.87 |  | pKi (delta opioid receptor [2]): 8.40
CC(C)Oc1ccc(Oc2nc(-c3cccnc3)ncc2NC[C@@H]2CCCN2)cc1 [Cpd 141] | 0.149 | 8.52 |  |  | 
O=C(O)c1ccc(Oc2nc(-c3cccnc3)ncc2NC[C@@H]2CCCN2)cc1 [Cpd 159] |  | 5.35 |  |  | 
Clc1ccc(Oc2nc(-c3cncnc3)ncc2NC[C@@H]2CCCN2)cc1 [Cpd 130] | 0.245 | 8.70 |  |  | 
COc1ccc(Oc2nc(-c3cncnc3)ncc2NC[C@@H](N)CC(C)C)cc1 [Cpd 295] |  |  |  |  | pKi (delta opioid receptor [2]): 7.19
N#Cc1cncc(-c2ncc(NC[C@@H]3CCCN3)c(Oc3ccc(F)cc3)n2)c1 [Cpd 146] |  | 9.40 | 6.41 | 1.197 | 
Oc1ccc(Oc2nc(-c3cncnc3)ncc2NC[C@@H]2CCCN2)cc1 [Cpd 156, 4-{5-[(Pyrrolidin-2-(S)-ylmethyl)-amino]-[2,5]bipyrimidinyl-4-yloxy}-phenol] |  |  | 6.75 |  | pKi (delta opioid receptor [2]): 9.00

SMILES | GTPγS δ-RelEfficacy @200 nM (delta opioid receptor [1]) | pKi (delta opioid receptor [2]; [4]) | pEC50 (delta opioid receptor [1]) | GTPγS δ-opioid receptor Rel Efficacy (delta opioid receptor [1]) | also measured
FC(F)(F)COc1ccc(Oc2nc(-c3cncnc3)ncc2NC[C@@H]2CCCN2)cc1 [Cpd 123] | 0.653 | 9.40 | 7.24 | 1.124 | 
N#Cc1cccc(Oc2nc(-c3cccnc3)ncc2NC[C@@H]2CCCN2)c1 [Cpd 135, 3-{2-Pyridin-3-yl-5-[(pyrrolidin-2-(S)-ylmethyl)-amino]-pyrimidin-4-yloxy}-benzonitrile] |  |  | 5.86 |  | pKi (delta opioid receptor [2]): 8.70
O=C(c1ccc(Oc2nc(-c3cccnc3)ncc2NC[C@@H]2CCCN2)cc1)N1CCOCC1 [Cpd 161] |  | 6.10 |  |  | 
O=C(c1cccc(Oc2nc(-c3cccnc3)ncc2NC[C@@H]2CCCN2)c1)N1CCCC1 [Cpd 166] | 0.169 |  |  |  | pKi (delta opioid receptor [2]): 7.57
OCc1ccc(Oc2nc(-c3cccnc3)ncc2NC[C@@H]2CCCN2)cc1 [Cpd 145] |  | 8.30 | 5.40 | 1.180 | 
COc1ccc(Oc2nc(-c3ccc(OC)c(F)c3)ncc2NC[C@@H]2CCCN2)cc1 [Cpd 64] |  |  |  | 0.830 | pKi (delta opioid receptor [3]; [5]): 8.10; EC50 (delta opioid receptor [1]): 0.088 µM; inhibition at 10 µM (delta opioid receptor [1]): 12%; pKi (mu opioid receptor; μ-binding Ki): 6.33
N#Cc1ccc(Oc2nc(-c3cccnc3)ncc2NC[C@@H]2CCCN2)cc1F [Cpd 137] |  | 8.05 | < 5.00 |  | 
COc1ccc(Oc2nc(-c3ccccc3)ncc2NC[C@@H]2CCCN2)cc1 [Cpd 2] |  |  |  | 0.733 | pKi (delta opioid receptor [3]; δ-binding (DPDPE ligand) Ki, [3H]DPDPE ligand): 7.70; pKi (delta opioid receptor [3]; [5]): 7.48; EC50 (delta opioid receptor [1]): 0.43 µM and 0.069 µM; inhibition at 10 µM (delta opioid receptor [1]): 5.79%; pKi (mu opioid receptor; μ-binding Ki): 5.50 and 5.47
O=C(O)c1cccc(Oc2nc(-c3cncc(F)c3)ncc2NC[C@@H]2CCCN2)c1 [Cpd 164] |  | 5.64 |  |  | 
COc1ccc(Oc2nc(-c3ccc4c(c3)CCO4)ncc2NC[C@@H]2CCCN2)cc1 [Cpd 63] |  |  | 6.16 |  | pKi (delta opioid receptor [3]; [5]): 7.43; pKi (mu opioid receptor; read-out: μ-binding Ki): 6.20
N#Cc1ccc(Oc2nc(-c3cccnc3)ncc2NC[C@@H]2CCCN2)cc1 [Cpd 136] |  | 8.15 | 5.05 | 0.789 | 
COc1ccc(Oc2nc(-c3cncc(F)c3)ncc2NC[C@@H]2CCCN2)cc1F [Cpd 131] | 0.819 | 9.70 | 7.12 | 1.063 | 
N#Cc1cncc(-c2ncc(NC[C@@H]3CCCN3)c(Oc3ccc4ncsc4c3)n2)c1 [Cpd 86] |  |  | 6.41 |  | pKi (delta opioid receptor [3]; [5]): 8.70; pKi (mu opioid receptor; read-out: μ-binding Ki): 5.93
CCCOc1ccc(Oc2nc(-c3cncc(C#N)c3)ncc2NC[C@@H]2CCCN2)cc1 [Cpd 113] |  |  |  | 1.104 | pKi (delta opioid receptor [3]; [5]): 7.35; EC50 (delta opioid receptor [1]): 0.075 µM; pKi (mu opioid receptor; μ-binding Ki): 5.84
O=C(O)c1cccc(Oc2nc(-c3cccnc3)ncc2NC[C@@H]2CCCN2)c1 [Cpd 163] |  | 5.19 |  |  | 
c1ncc(-c2ncc(NC[C@@H]3CCCN3)c(Oc3ccc4ncsc4c3)n2)cn1 [Cpd 85] |  |  | < 5.00 |  | pKi (delta opioid receptor [3]; [5]): 8.70; pKi (mu opioid receptor; read-out: μ-binding Ki): < 5.00
COCc1ccc(Oc2nc(-c3cncc(C#N)c3)ncc2NC[C@@H]2CCCN2)cc1 [Cpd 153] | 0.454 | 9.00 | 6.71 | 1.120 | 
O=C(c1cccc(Oc2nc(-c3cccnc3)ncc2NC[C@@H]2CCCN2)c1)N1CCOCC1 [Cpd 168] | 0.300 | 7.30 |  |  | 
COc1ccc(Oc2nc(-c3ccc(F)c(F)c3)ncc2NC[C@@H]2CCCN2)cc1 [Cpd 56] |  |  | 6.27 |  | pKi (delta opioid receptor [3]; [5]): 7.82; inhibition at 10 µM (delta opioid receptor [1]): 26.3%; pKi (mu opioid receptor; read-out: μ-binding Ki): 5.71
COc1ccc(Oc2nc(-c3ccc4c(c3)OCO4)ncc2NC[C@@H]2CCCN2)cc1 [Cpd 93] |  |  |  | 1.115 | pKi (delta opioid receptor [3]; [5]): 8.10; EC50 (delta opioid receptor [1]): 0.072 µM; pKi (mu opioid receptor; μ-binding Ki): 6.26
COc1ccc(Oc2nc(-c3ccnc(SC)n3)ncc2NC[C@@H]2CCCN2)cc1 [Cpd 66, [4-(4-Methoxy-phenoxy)-2′-methylsulfanyl-[2,4]bipyrimidinyl-5-yl]-pyrrolidin-2-(S)-ylmethyl-amine] |  |  | 6.25 |  | pKi (delta opioid receptor [3]; [5]): 8.00; inhibition at 10 µM (delta opioid receptor [1]): 5.77%; pKi (mu opioid receptor; read-out: μ-binding Ki): 6.41
COc1ccc(Oc2nc(-c3cncnc3)ncc2NC2CCCNC2)cc1 (stereo not drawn) [Cpd 109] |  |  |  | 1.102 | pKi (delta opioid receptor [3]; [5]): 9.00; EC50 (delta opioid receptor [1]): 0.057 µM; pKi (mu opioid receptor; μ-binding Ki): 6.28
COc1ccc(Oc2nc(-c3ccncc3)ncc2NC[C@@H]2CCCN2)cc1 [Cpd 7] |  |  | 6.36 | 0.912 | pKi (delta opioid receptor [3]; [3H]naltrindole ligand, read-out: δ-binding (Naltrindole ligand) Ki): 7.89; inhibition at 10 µM (delta opioid receptor [1]): 17.1%; pKi (mu opioid receptor; read-out: μ-binding Ki): 5.66
O=C(c1ccc(Oc2nc(-c3cccnc3)ncc2NC[C@@H]2CCCN2)cc1)N1CCCC1 [Cpd 158] |  | 5.79 |  |  | 

Source: US8513271B2, “Pyrimidine compounds as delta opioid receptor modulators” (Janssen Pharmaceutica, NV, priority 2009, dated 2013)
